The supplement of paper PMC10627819
≈ marks a conversion by molar mass, not a printed value.

How the values were obtained:
[1] = tested on: S. aureus Newman; assay: fitness (endpoint OD595 vs no drug) (fraction); higher = more growth
Method in brief: (§1)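 With the first reading as background, OD595 was measured every 30 min for 14 h in 384-well plates kept at 37 °C and inoculated at OD595 0.01. TSB, LB Lennox or CY was the medium. Fitness is the optical density at the transition into stationary phase divided by the robust mean of no-drug control wells, with a cap of 1.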

[2] = tested on: S. pneumoniae D39V; assay: as above
Method in brief: as §1

[3] = tested on: B. subtilis 168; assay: as above
Method in brief: as §1

[4] = tested on: S. aureus DSM 20231; assay: as above
Method in brief: as §1

[5] = tested on: S. aureus Newman; assay: Bliss interaction score (quartile over a dose matrix) (fitness difference); higher = more antagonism (negative = synergy)
Method in brief: (§2)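 Each plate was normalised to the robust mean of its own no-drug wells, using OD595 at entry into stationary phase, with values capped at 1. This normalised growth is the fitness value. The Bliss score is the difference between observed and product-expected fitness, with single-drug fitness inferred from the combination data and quartiles taken over technical, biological and donor/recipient replicates.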

[6] = tested on: S. pneumoniae D39V; assay: as above
Method in brief: as §2

[7] = tested on: B. subtilis 168; assay: as above
Method in brief: as §2

[8] = tested on: S. aureus DSM 20231; assay: as above
Method in brief: as §2

[9] = tested on: S. aureus Newman
[10] = tested on: S. pneumoniae D39V
[11] = tested on: B. subtilis 168
[12] = tested on: S. aureus DSM 20231
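For Bliss interaction score (quartile over a dose matrix) in this document: first quartile when negative (synergy) and third quartile when positive (antagonism).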

Cn1c2cccc(=O)c-2nc2ccccc21 [Pyocyanin] + CN(N=O)C(=O)N[C@@H](C=O)[C@@H](O)[C@H](O)[C@H](O)CO [Streptozotocin]
fitness
Settings	partner 0.15 µg/mL	partner 0.3 µg/mL	partner 0.6 µg/mL	partner 1.2 µg/mL	partner 2.4 µg/mL	partner 4.8 µg/mL
[1], first compound 1.25 µg/mL	0.788	0.633	0.494	–	–	–
[1], first compound 2.5 µg/mL	0.695	0.591	0.385	–	–	–
[1], first compound 5 µg/mL	0.265	0.249	0.167	–	–	–
[2], first compound 0.325 µg/mL	–	–	–	0.951	0.912	0.928
[2], first compound 0.65 µg/mL	–	–	–	0.973	0.964	0.965
[4], first compound 1.25 µg/mL	0.836	0.852	0.711	–	–	–
[4], first compound 2.5 µg/mL	0.803	0.772	0.676	–	–	–
[4], first compound 5 µg/mL	0.626	0.617	0.517	–	–	–

fitness, one replicate
Settings	partner 0.15 µg/mL	partner 0.3 µg/mL	partner 0.6 µg/mL	partner 1.2 µg/mL	partner 2.4 µg/mL	partner 4.8 µg/mL
[2], first compound 1.3 µg/mL	–	–	–	0.626	0.683	0.783
[3], first compound 1.25 µg/mL	0.99	0.918	0.96	–	–	–
[3], first compound 2.5 µg/mL	0.777	0.903	0.873	–	–	–
[3], first compound 5 µg/mL	0.687	0.729	0.777	–	–	–

Settings	Bliss interaction score
[5]	-0.0417
[6]	-0.0715
[7]	-0.0597
[8]	0.0692

Cn1c2cccc(=O)c-2nc2ccccc21 [Pyocyanin] + CN[C@@H]1[C@H](O)[C@H](NC)[C@H]2O[C@@]3(O)C(=O)C[C@@H](C)O[C@H]3O[C@@H]2[C@H]1O [Spectinomycin]
fitness
Settings	partner 2 µg/mL	partner 4 µg/mL	partner 8 µg/mL	partner 16 µg/mL
[1], first compound 1.25 µg/mL	–	0.853	0.867	0.853
[1], first compound 2.5 µg/mL	–	0.761	0.766	0.697
[2], first compound 0.325 µg/mL	–	0.995	0.955	–
[2], first compound 0.65 µg/mL	–	0.96	0.944	–
[3], first compound 1.25 µg/mL	0.907	0.914	0.861	–
[3], first compound 2.5 µg/mL	0.887	0.876	0.857	–
[3], first compound 5 µg/mL	0.762	0.757	0.708	–
[4], first compound 1.25 µg/mL	–	0.884	0.93	0.82
[4], first compound 2.5 µg/mL	–	0.868	0.86	0.716
[4], first compound 5 µg/mL	–	0.688	0.726	0.582

fitness, one replicate
Settings	[1]	[2]	[4]
first compound 0.325 µg/mL, partner 16 µg/mL	–	0.729	–
first compound 0.65 µg/mL, partner 16 µg/mL	–	0.885	–
first compound 1.25 µg/mL, partner 32 µg/mL	0.591	–	0.656
first compound 1.25 µg/mL, partner 64 µg/mL	0.11	–	0.0503
first compound 1.3 µg/mL, partner 4 µg/mL	–	0.776	–
first compound 1.3 µg/mL, partner 8 µg/mL	–	0.792	–
first compound 2.5 µg/mL, partner 32 µg/mL	0.489	–	0.638
first compound 2.5 µg/mL, partner 64 µg/mL	0.0964	–	0.0416
first compound 5 µg/mL, partner 32 µg/mL	0.268	–	0.342
first compound 5 µg/mL, partner 64 µg/mL	0.0535	–	0.0295

Settings	Bliss interaction score
[5]	0.0628
[6]	0.0496
[7]	-0.0432
[8]	-0.0492

Cn1c2cccc(=O)c-2nc2ccccc21 [Pyocyanin] + Cc1cc(NS(=O)(=O)c2ccc(N)cc2)no1 [Sulfamethoxazol]
one replicate
Settings	fitness
[1], first compound 1.25 µg/mL, partner 8 µg/mL	0.911
[1], first compound 2.5 µg/mL, partner 8 µg/mL	0.858
[1], first compound 5 µg/mL, partner 8 µg/mL	0.778
[2], first compound 1.3 µg/mL, partner 1 µg/mL	0.637
[2], first compound 1.3 µg/mL, partner 2 µg/mL	0.679
[2], first compound 1.3 µg/mL, partner 4 µg/mL	0.615
[3], first compound 1.25 µg/mL, partner 0.5 µg/mL	0.915
[3], first compound 2.5 µg/mL, partner 0.5 µg/mL	0.884
[3], first compound 5 µg/mL, partner 0.5 µg/mL	0.632

fitness
Settings	partner 1 µg/mL	partner 2 µg/mL	partner 4 µg/mL
[2], first compound 0.325 µg/mL	0.983	≥ 1	0.96
[2], first compound 0.65 µg/mL	0.936	0.975	0.933
[3], first compound 1.25 µg/mL	0.869	0.862	0.877
[3], first compound 2.5 µg/mL	0.852	0.738	0.868
[3], first compound 5 µg/mL	0.669	0.685	0.774
[4], first compound 1.25 µg/mL	0.929	0.939	0.925
[4], first compound 2.5 µg/mL	0.831	0.903	0.893
[4], first compound 5 µg/mL	0.641	0.674	0.689

Settings	Bliss interaction score
[5]	-0.0714
[6]	-0.0551
[7]	-0.063
[8]	0.0564

CN(N=O)C(=O)N[C@@H](C=O)[C@@H](O)[C@H](O)[C@H](O)CO [Streptozotocin]
Settings	MIC [µg/mL]
[9]	0.8 (≈ 3.02 µM)
[10]	5 (≈ 18.9 µM)
[11]	0.7 (≈ 2.64 µM)
[12]	0.8 (≈ 3.02 µM)

fitness
Settings	0.15 µg/mL	0.3 µg/mL	0.6 µg/mL	1.2 µg/mL	2.4 µg/mL	4.8 µg/mL
[1]	0.852	0.735	0.524	–	–	–
[2]	–	–	–	0.96	0.936	0.975
[3]	0.987	0.961	0.99	–	–	–
[4]	0.891	0.843	0.756	–	–	–
